Broadly, the Ki is the equilibrium dissociation constant of an inhibitor or competing ligand from its target. Low readings indicate higher affinity, high ones lower affinity.

Drawing on ChEMBL document CHEMBL4673280, “Discovery and SAR studies of 2-alkyl-3-phenyl-2,4,5,6,7,8-hexahydropyrazolo[3,4-d]azepines as 5-HT inhibitors leading to the identification of a clinical candidate” (Bioorg Med Chem Lett, 2021), this text covers Ki for 18 molecules.

Structures are written as SMILES.

Experiment [1] addresses T1, 5-hydroxytryptamine receptor 2C (Homo sapiens, UniProt P28335).
T1 sequence (P28335 whole entry): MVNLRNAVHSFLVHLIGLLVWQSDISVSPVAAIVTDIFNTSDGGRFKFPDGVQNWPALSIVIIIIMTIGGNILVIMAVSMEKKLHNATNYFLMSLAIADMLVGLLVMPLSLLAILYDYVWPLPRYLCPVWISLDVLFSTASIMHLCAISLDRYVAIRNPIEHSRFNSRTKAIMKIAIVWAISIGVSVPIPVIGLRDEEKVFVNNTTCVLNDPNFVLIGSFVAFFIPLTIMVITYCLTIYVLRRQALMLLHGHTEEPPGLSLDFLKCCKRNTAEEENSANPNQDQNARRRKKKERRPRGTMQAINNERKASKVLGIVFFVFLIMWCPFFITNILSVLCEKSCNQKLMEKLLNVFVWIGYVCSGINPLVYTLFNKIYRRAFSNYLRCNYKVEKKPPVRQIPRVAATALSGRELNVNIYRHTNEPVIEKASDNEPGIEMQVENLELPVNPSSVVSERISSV
Description: Displacement of [3H]-ketanserin from human 5-HT2C receptor by competitive radioligand binding assay.

The target of experiment [2] is 5-hydroxytryptamine receptor 2A (Homo sapiens, UniProt P28223). The experiment can be described thus: Displacement of [3H]-ketanserin from human 5-HT2A receptor by competitive radioligand binding assay.
In experiment [3] the target is 5-hydroxytryptamine receptor 7 (Rattus norvegicus, UniProt P32305). The experiment can be described thus: Displacement of [3H]-CT from rat 5-HT7 receptor expressed in HEK293 cells by competitive radioligand binding assay. The experiment is classed as cell-based. A general note: Loss of bound radioactivity is the signal in a displacement assay; it reports binding, not function.

For experiment [4], the target named is T2, Adrenergic receptor alpha-1 (Rattus norvegicus, UniProt P15823+P23944+P43140).
T2 sequence (P15823 whole entry): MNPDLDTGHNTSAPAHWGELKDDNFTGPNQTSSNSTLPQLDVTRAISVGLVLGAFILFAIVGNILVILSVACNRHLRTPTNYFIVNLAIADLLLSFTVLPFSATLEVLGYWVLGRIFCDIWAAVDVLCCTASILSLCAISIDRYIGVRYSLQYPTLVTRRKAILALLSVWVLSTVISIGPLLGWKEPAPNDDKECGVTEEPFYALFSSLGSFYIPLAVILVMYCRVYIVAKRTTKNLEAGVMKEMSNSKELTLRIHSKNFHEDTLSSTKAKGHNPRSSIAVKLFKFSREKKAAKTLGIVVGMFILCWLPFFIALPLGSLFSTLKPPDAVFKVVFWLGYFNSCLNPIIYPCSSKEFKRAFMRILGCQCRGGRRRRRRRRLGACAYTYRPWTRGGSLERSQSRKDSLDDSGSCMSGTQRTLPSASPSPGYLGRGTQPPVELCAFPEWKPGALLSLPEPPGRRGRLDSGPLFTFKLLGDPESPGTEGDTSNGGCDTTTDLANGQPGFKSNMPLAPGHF
T2 sequence (P23944 whole entry): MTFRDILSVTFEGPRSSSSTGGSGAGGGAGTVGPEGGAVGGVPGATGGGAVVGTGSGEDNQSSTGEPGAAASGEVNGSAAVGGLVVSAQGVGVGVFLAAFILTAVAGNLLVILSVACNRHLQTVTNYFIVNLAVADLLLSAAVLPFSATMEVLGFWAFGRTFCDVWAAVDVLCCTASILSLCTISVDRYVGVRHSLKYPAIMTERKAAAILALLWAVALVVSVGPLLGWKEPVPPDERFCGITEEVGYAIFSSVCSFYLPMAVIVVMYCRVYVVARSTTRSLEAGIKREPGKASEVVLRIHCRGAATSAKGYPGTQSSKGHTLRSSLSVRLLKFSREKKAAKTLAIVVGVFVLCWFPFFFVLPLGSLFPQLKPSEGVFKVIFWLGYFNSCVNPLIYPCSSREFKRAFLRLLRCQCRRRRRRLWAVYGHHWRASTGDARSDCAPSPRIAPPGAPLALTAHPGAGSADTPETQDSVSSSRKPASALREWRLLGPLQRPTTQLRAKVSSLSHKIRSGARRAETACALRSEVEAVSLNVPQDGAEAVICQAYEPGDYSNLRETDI
T2 sequence (P43140 whole entry): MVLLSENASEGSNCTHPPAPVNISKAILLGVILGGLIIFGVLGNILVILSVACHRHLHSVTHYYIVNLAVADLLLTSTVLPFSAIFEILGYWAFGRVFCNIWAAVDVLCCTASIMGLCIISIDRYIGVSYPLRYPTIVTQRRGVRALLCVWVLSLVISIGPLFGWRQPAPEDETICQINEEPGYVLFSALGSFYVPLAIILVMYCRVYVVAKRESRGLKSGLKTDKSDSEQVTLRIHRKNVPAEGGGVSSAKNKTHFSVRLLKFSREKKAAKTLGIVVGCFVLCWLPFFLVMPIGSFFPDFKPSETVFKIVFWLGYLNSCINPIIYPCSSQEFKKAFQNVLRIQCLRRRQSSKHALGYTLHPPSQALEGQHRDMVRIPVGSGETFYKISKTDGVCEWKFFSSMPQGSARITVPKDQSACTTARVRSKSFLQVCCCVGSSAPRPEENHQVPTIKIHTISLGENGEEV
The experiment can be described thus: Displacement of […] from alpha1 adrenergic receptor in rat cortex membrane incubated for 60 mins by competitive radioligand binding assay. The experiment is classed as cell membranes.

Experiment [5] concerns the target 5-hydroxytryptamine receptor 2B (Homo sapiens, UniProt P41595). Description: Displacement of [3H]-ketanserin from human 5-HT2B receptor by competitive radioligand binding assay.

5-hydroxytryptamine receptor 2A, sequence (P28223 whole entry): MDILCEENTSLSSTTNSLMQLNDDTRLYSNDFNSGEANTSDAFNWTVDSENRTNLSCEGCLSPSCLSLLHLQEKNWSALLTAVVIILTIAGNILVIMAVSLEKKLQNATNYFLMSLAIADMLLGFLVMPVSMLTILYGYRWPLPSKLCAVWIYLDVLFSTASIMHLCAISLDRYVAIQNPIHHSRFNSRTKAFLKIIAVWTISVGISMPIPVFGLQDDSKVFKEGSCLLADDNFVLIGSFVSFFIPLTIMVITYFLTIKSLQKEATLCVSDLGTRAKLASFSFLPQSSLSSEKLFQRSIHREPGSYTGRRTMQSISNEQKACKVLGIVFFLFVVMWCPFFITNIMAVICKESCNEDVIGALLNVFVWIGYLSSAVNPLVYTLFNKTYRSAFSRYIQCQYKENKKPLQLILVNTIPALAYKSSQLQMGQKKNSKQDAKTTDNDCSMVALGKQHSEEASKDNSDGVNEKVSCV
5-hydroxytryptamine receptor 7, sequence (P32305 whole entry): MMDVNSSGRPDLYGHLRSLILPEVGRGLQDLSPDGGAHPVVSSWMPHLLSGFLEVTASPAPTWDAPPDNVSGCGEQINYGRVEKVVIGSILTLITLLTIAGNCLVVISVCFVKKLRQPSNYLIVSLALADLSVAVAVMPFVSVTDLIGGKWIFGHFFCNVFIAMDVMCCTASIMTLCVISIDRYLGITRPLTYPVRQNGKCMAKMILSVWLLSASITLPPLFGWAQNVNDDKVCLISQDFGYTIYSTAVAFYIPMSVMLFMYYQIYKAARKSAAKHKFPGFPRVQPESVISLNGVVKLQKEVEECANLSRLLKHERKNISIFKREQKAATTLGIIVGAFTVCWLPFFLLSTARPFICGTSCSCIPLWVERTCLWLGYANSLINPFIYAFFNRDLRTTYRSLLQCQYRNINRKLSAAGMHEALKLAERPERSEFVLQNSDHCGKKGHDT
5-hydroxytryptamine receptor 2B, sequence (P41595 whole entry): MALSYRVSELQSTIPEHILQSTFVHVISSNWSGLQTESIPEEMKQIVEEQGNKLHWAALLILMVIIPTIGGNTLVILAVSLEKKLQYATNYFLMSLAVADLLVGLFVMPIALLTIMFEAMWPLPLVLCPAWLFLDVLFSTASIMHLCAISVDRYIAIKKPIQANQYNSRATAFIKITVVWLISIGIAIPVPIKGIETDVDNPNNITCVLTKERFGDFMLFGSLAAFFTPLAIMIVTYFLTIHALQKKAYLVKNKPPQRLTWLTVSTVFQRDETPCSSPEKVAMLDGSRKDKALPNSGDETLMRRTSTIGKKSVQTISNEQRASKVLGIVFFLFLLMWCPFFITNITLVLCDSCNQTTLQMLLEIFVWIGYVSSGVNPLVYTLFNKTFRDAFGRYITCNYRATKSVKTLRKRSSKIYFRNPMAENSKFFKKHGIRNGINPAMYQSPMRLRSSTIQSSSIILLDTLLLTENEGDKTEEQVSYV

As to `CC(C)n1nc2c(c1-c1ccc(C#N)cc1)CCNCC2`, the Ki in experiment [1] came out at 390 nM; in experiment [2], 5 nM; in experiment [3] it was 90 nM; in experiment [4], 240 nM.

As for `c1ccc(-c2c3c(nn2C2CC2)CCNCC3)cc1`, the Ki in experiment [1] stood at 30 nM; in experiment [2], 30 nM; in experiment [5], 20 nM; in experiment [3], 20 nM; in experiment [4], 600 nM.

In the case of `CNc1ccc(-c2c3c(nn2C(C)C)CCNCC3)cc1`, the inhibition constant (Ki) came to 210 nM in experiment [1]; 3 nM in experiment [2]; 24 nM in experiment [5]; 40 nM in experiment [3]; 16 nM in experiment [4].

In the case of `CC(C)n1nc2c(c1-c1ccccc1)CCNCC2`, the Ki worked out at 130 nM in experiment [1]; 24 nM in experiment [2]; 19 nM in experiment [5]; 28 nM in experiment [3]; 530 nM in experiment [4].

`c1ccc(-c2c3c(nn2C2CCC2)CCNCC3)cc1`: the Ki was 3 nM in experiment [2], 3 nM in experiment [5] and 500 nM in experiment [4].

For the molecule `CC(C)n1nc2c(c1-c1ccc(Cl)c(Cl)c1)CCNCC2`, the inhibition constant Ki in experiment [1] is 910 nM; in experiment [2], 39 nM; in experiment [5] it was 31 nM; in experiment [3], 4000 nM.

Turning to `COc1ccc(-c2c3c(nn2C(C)C)CCNCC3)cc1`, the Ki turned out to be 3 nM in experiment [2], 1 nM in experiment [5] and 18 nM in experiment [3].

Regarding `Fc1ccc(-c2c3c(nn2C2CC2)CCNCC3)cc1`, in experiment [2], affinity was put at a Ki of 6 nM.

`CC(C)n1nc2c(c1-c1ccc(OC(F)(F)F)cc1)CCNCC2`: the Ki in experiment [1] was found to be 990 nM; in experiment [2], 40 nM; in experiment [5], 20 nM; in experiment [3], 5000 nM.

Consider `CC(C)n1nc2c(c1-c1ccc(Cl)cc1Cl)CCNCC2`, for which the Ki in experiment [1] turned out to be 220 nM; in experiment [2], 15 nM; in experiment [5], 43 nM; in experiment [3], 400 nM.

Regarding `CCn1nc2c(c1-c1ccccc1)CCNCC2`, the inhibitory constant (Ki) turned out to be 1200 nM in experiment [1], 60 nM in experiment [2], 75 nM in experiment [5] and 140 nM in experiment [3].

With `Cc1ccc(-c2c3c(nn2C(C)C)CCNCC3)cc1`, the results for the Ki in experiment [2], in experiment [5] and in experiment [4] were 1 nM, 2 nM and 4 nM, respectively.

For the molecule `CC(C)n1nc2c(c1-c1ccc(C(F)(F)F)cc1)CCNCC2`, the Ki in experiment [2] is 2 nM; in experiment [5], 5 nM; in experiment [3], 15 nM; in experiment [4], 130 nM.

As to `c1ccc(-c2c3c(nn2-c2ccccc2)CCNCC3)cc1`, the inhibition constant Ki in experiment [1] was 9000 nM; in experiment [2], 600 nM; in experiment [5] it was 15 nM; in experiment [3] it was 150 nM; in experiment [4] it was 10000 nM.

Regarding `Fc1ccc(-c2c3c(nn2C2CCC2)CCNCC3)cc1`, the Ki came out at 45 nM in experiment [1], 1 nM in experiment [2], 4 nM in experiment [5] and 220 nM in experiment [4].

Take `CC(C)n1nc2c(c1-c1ccc(Cl)cc1)CCNCC2`: the Ki in experiment [2] is 1 nM; in experiment [5], 1 nM; in experiment [3] it was 9 nM; in experiment [4], 20 nM.

For `CC(C)(C)n1nc2c(c1-c1ccccc1)CCNCC2`, the Ki in experiment [1] came to 85 nM; in experiment [2], 19 nM; in experiment [5], 43 nM.

The molecule `Clc1ccc(-c2nn(Cc3ccccc3)c3c2CCNCC3)cc1` [JNJ-18038683 FREE BASE] yielded a Ki in experiment [2] of 100 nM. This counts as sub-micromolar.
